Data as given in patent US9695155B2, “Herbicidal substituted pyrimidinyloxy benzene compounds” (E. I. DU PONT DE NEMOURS AND COMPANY, priority 2013, dated 2017).

Columns and labels:
wild oat = assay: Test C postemergence; assay type: in vivo, Avena fatua; conditions: Avena fatua, post-emergence
Method in brief: (§1)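 Injury was assessed visually against controls 13 to 15 days after application, with 0 meaning no effect and 100 full control; missing entries are shown as a dash. Preemergence sprays hit seeded loam–sand soil, postemergence sprays hit 1- to 4-leaf plants.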

large (Lg) crabgrass [1] = assay: Test A preemergence; assay type: in vivo, Digitaria sanguinalis
Method in brief: (§2)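 Visual 0–100 rating (100 = complete control) taken about 10 d post-treatment relative to untreated checks. Preemergence: directed soil spray on sown loam/sand pots. Postemergence: seedlings 2–10 cm, 1–2 leaf. Non-phytotoxic solvent formulation with surfactant.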

lambsquarters = assay: Test C postemergence; assay type: in vivo, Chenopodium album
Method in brief: as §1

sedge, umbrella = assay: Test B flooded paddy test; assay type: in vivo, Cyperus difformis; conditions: Cyperus difformis, Flood, 250 g ai/ha; 0 to 100 scale where 0 is no effect and 100 is complete control; read-out: Plant response rating, Sedge, Umbrella
Method in brief: (§3)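 Scores from 0 (no effect) to 100 (complete control) are visual comparisons with controls, taken 13 to 15 days after compound was applied into floodwater 3 cm deep around 2-leaf plants.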

barnyardgrass [2] = assay: Test B flooded paddy test; assay type: in vivo, Echinochloa crus-galli; conditions: Echinochloa crus-galli; Flood, 250 g ai/ha; 0 to 100 scale where 0 is no effect and 100 is complete control; read-out: Plant response rating, Barnyardgrass
Method in brief: as §3

barnyardgrass [3] = assay: Test C postemergence; assay type: in vivo, Echinochloa crus-galli; conditions: Echinochloa crus-galli, post-emergence
Method in brief: as §1

rice = assay: Test B flooded paddy test; assay type: in vivo, Oryza sativa; conditions: Oryza sativa; Flood, 250 g ai/ha; 0 to 100 scale where 0 is no effect and 100 is complete control; read-out: Plant response rating, Rice
Method in brief: as §3

giant foxtail = assay: Test C postemergence; assay type: in vivo, Setaria faberii; conditions: Setaria faberi, post-emergence
Method in brief: as §1

barnyardgrass [4] = assay: Test A postemergence; assay type: in vivo, Echinochloa crus-galli; conditions: Echinochloa crus-galli, post-emergence, 240 h, read-out: Plant response rating, Barnyardgrass
Method in brief: as §2

yellow nutsedge = assay: Test C postemergence; assay type: in vivo, Cyperus esculentus
Method in brief: as §1

chickweed = assay: Test C postemergence; assay type: in vivo, Stellaria media; conditions: Stellaria media, post-emergence
Method in brief: as §1

large (Lg) crabgrass [5] = assay: Test C postemergence; assay type: in vivo, Digitaria sanguinalis; conditions: Digitaria sanguinalis, post-emergence
Method in brief: as §1

morningglory = assay: Test C postemergence; assay type: in vivo, Ipomoea coccinea
Method in brief: as §1

pigweed = assay: Test A postemergence; assay type: in vivo, Amaranthus retroflexus; conditions: Amaranthus retroflexus, post-emergence, read-out: Plant response rating, Pigweed
Method in brief: as §2

barnyardgrass [6] = assay: Test A preemergence; assay type: in vivo, Echinochloa crus-galli
Method in brief: as §2

[7] = 31 g ai/ha, postemergence, visual rating, scale 0 to 100 (0 no effect, 100 complete control), 13 to 15 days
[8] = 125 g ai/ha, 0 to 100 scale, 0 no effect, 100 complete control
[9] = 500 g ai/ha, 0 to 100 scale where 0 is no effect and 100 is complete control

Compound `N#Cc1cccc(Oc2ncc(Cl)cn2)c1-n1cc(OCC(F)(F)F)cn1` [Compound 274, 3-[(5-chloro-2-pyrimidinyl)oxy]-2-[4-(2,2,2-trifluoroethoxy)-1H-pyrazol-1-yl]benzonitrile] has a pest or weed control at 16 g/ha (wild oat; 16 g ai/ha, postemergence, 0 is no effect, 100 is complete control, read-out: Plant response rating (0 to 100), Oat, Wild) of 30%, a pest or weed control at 125 g/ha (wild oat; 125 g ai/ha, postemergence, visual rating, scale 0 to 100 (0 no effect, 100 complete control), read-out: Plant response rating, Oat, Wild) of 30% and a pest or weed control at 62 g/ha (wild oat; Postemergence, 62 g ai/ha, scale 0 to 100 (0 no effect, 100 complete control), 13 to 15 days, read-out: Plant response rating, Oat, Wild) of 35%. The “Crabgrass, Large plant response rating (0 to 100 scale)” value (large (Lg) crabgrass [1]; 125 g ai/ha) was 100, the pest or weed control at 500 g/ha (large (Lg) crabgrass [1]; Digitaria sanguinalis, pre-emergence, 240 h, 500 g ai/ha, 0 to 100 scale where 0 is no effect and 100 is complete control, read-out: Crabgrass, Large plant response rating) was 100% and the “Lambsquarters plant response rating” value (lambsquarters; [7]) was 95. It also gave a pest or weed control at 16 g/ha (lambsquarters; Chenopodium album, post-emergence, 16 g ai/ha, postemergence, 0 is no effect, 100 is complete control, read-out: Plant response rating (0 to 100), Lambsquarters) of 85%, a pest or weed control at 125 g/ha (lambsquarters; Chenopodium album, post-emergence, 125 g ai/ha, postemergence, visual rating, scale 0 to 100 (0 no effect, 100 complete control), read-out: Plant response rating, Lambsquarters) of 98% and a pest or weed control at 62 g/ha (lambsquarters; Chenopodium album, post-emergence, Postemergence, 62 g ai/ha, scale 0 to 100 (0 no effect, 100 complete control), 13 to 15 days, read-out: Plant response rating, Lambsquarters) of 95%. The pest or weed control at 250 g/ha (sedge, umbrella) was 95%, the pest or weed control at 250 g/ha (barnyardgrass [2]) was 65% and the pest or weed control at 16 g/ha (barnyardgrass [3]; 16 g ai/ha, postemergence, 0 is no effect, 100 is complete control, read-out: Plant response rating (0 to 100), Barnyardgrass) was 5%. For the same compound, the pest or weed control at 31 g/ha (barnyardgrass [3]; 31 g ai/ha, postemergence, visual rating, scale 0 to 100 (0 no effect, 100 complete control), 13 to 15 days, read-out: Barnyardgrass plant response rating) was 10%, the pest or weed control at 125 g/ha (barnyardgrass [3]; 125 g ai/ha, postemergence, visual rating, scale 0 to 100 (0 no effect, 100 complete control), read-out: Plant response rating, Barnyardgrass) was 15% and the pest or weed control at 62 g/ha (barnyardgrass [3]; Postemergence, 62 g ai/ha, scale 0 to 100 (0 no effect, 100 complete control), 13 to 15 days, read-out: Plant response rating, Barnyardgrass) was 10%. The plant injury at 250 g/ha (rice) was 60%, the pest or weed control at 16 g/ha (giant foxtail; 16 g ai/ha, postemergence, 0 is no effect, 100 is complete control, read-out: Plant response rating (0 to 100), Foxtail, Giant) was 5% and the pest or weed control at 31 g/ha (giant foxtail; 31 g ai/ha, postemergence, visual rating, scale 0 to 100 (0 no effect, 100 complete control), 13 to 15 days, read-out: Foxtail, Giant plant response rating) was 10%. For the same compound, the pest or weed control at 125 g/ha (giant foxtail; 125 g ai/ha, postemergence, visual rating, scale 0 to 100 (0 no effect, 100 complete control), read-out: Plant response rating, Foxtail, Giant) was 60%, the pest or weed control at 62 g/ha (giant foxtail; Postemergence, 62 g ai/ha, scale 0 to 100 (0 no effect, 100 complete control), 13 to 15 days, read-out: Plant response rating, Foxtail, Giant) was 10% and the pest or weed control at 125 g/ha (barnyardgrass [4]; [8]) was 90%. For the same compound, the pest or weed control at 500 g/ha (barnyardgrass [4]; [9]) was 100%, the “Nutsedge, Yellow plant response rating” value (yellow nutsedge; [7]) was 5 and the pest or weed control at 16 g/ha (yellow nutsedge; Cyperus, post-emergence, 16 g ai/ha, postemergence, 0 is no effect, 100 is complete control, read-out: Plant response rating (0 to 100), Nutsedge, Yellow) was 10%. For the same compound, the pest or weed control at 125 g/ha (yellow nutsedge; Cyperus, post-emergence, 125 g ai/ha, postemergence, visual rating, scale 0 to 100 (0 no effect, 100 complete control), read-out: Plant response rating, Nutsedge, Yellow) was 10%, the pest or weed control at 62 g/ha (yellow nutsedge; Cyperus, post-emergence, Postemergence, 62 g ai/ha, scale 0 to 100 (0 no effect, 100 complete control), 13 to 15 days, read-out: Plant response rating, Nutsedge, Yellow) was 20% and the pest or weed control at 16 g/ha (chickweed; 16 g ai/ha, postemergence, 0 is no effect, 100 is complete control, read-out: Plant response rating (0 to 100), Chickweed) was 70%. For the same compound, the pest or weed control at 31 g/ha (chickweed; 31 g ai/ha, postemergence, visual rating, scale 0 to 100 (0 no effect, 100 complete control), 13 to 15 days, read-out: Chickweed plant response rating) was 70%, the pest or weed control at 125 g/ha (chickweed; 125 g ai/ha, postemergence, visual rating, scale 0 to 100 (0 no effect, 100 complete control), read-out: Plant response rating, Chickweed) was 98% and the pest or weed control at 62 g/ha (chickweed; Postemergence, 62 g ai/ha, scale 0 to 100 (0 no effect, 100 complete control), 13 to 15 days, read-out: Plant response rating, Chickweed) was 90%. It also gave a pest or weed control at 16 g/ha (large (Lg) crabgrass [5]; 16 g ai/ha, postemergence, 0 is no effect, 100 is complete control, read-out: Plant response rating (0 to 100), Crabgrass, Large) of 5%, a pest or weed control at 31 g/ha (large (Lg) crabgrass [5]; 31 g ai/ha, postemergence, visual rating, scale 0 to 100 (0 no effect, 100 complete control), 13 to 15 days, read-out: Crabgrass, Large plant response rating) of 5% and a pest or weed control at 125 g/ha (large (Lg) crabgrass [5]; 125 g ai/ha, postemergence, visual rating, scale 0 to 100 (0 no effect, 100 complete control), read-out: Plant response rating, Crabgrass, Large) of 60%. For the same compound, the pest or weed control at 62 g/ha (large (Lg) crabgrass [5]; Postemergence, 62 g ai/ha, scale 0 to 100 (0 no effect, 100 complete control), 13 to 15 days, read-out: Plant response rating, Crabgrass, Large) was 30%, the “Morningglory plant response rating” value (morningglory; [7]) was 85 and the pest or weed control at 16 g/ha (morningglory; Ipomoea, post-emergence, 16 g ai/ha, postemergence, 0 is no effect, 100 is complete control, read-out: Plant response rating (0 to 100), Morningglory) was 85%. It also gave a pest or weed control at 125 g/ha (morningglory; Ipomoea, post-emergence, 125 g ai/ha, postemergence, visual rating, scale 0 to 100 (0 no effect, 100 complete control), read-out: Plant response rating, Morningglory) of 95%, a pest or weed control at 62 g/ha (morningglory; Ipomoea, post-emergence, Postemergence, 62 g ai/ha, scale 0 to 100 (0 no effect, 100 complete control), 13 to 15 days, read-out: Plant response rating, Morningglory) of 95% and a pest or weed control at 125 g/ha (pigweed; [8]) of 100%. The pest or weed control at 500 g/ha (pigweed; [9]) was 100%, the “Barnyardgrass plant response rating (0 to 100 scale, 0 is no effect, 100 is complete control)” value (barnyardgrass [6]; 125 g ai/ha) was 90 and the pest or weed control at 500 g/ha (barnyardgrass [6]; Echinochloa crus-galli, pre-emergence, 240 h, 500 g ai/ha, 0 to 100 scale where 0 is no effect and 100 is complete control, read-out: Barnyardgrass plant response rating) was 100%.
